Where two headings read alike, the source gives them in different places.
Legend:
Puccinia recondita = assay: In vivo preventive test on Puccinia recondita (brown rust on wheat); details: 264 h, read-out: efficacy
[1] = tested on: Colletotrichum lindemuthianum; assay: Colletotrichum lindemuthianum in vitro cell test; assay type: cell-based; details: 144 h, read-out: efficacy
[2] = for LogP: method [a]: LC-UV, acidic range, Table 1
[3] = 500 ppm of active ingredient, wheat sprayed 24 hours before contamination, evaluated 11 days after the inoculation
[4] = 20 ppm of active ingredient, inhibition of fungal growth, 6 days incubation, liquid culture

| chromatographic logP (physchem) | Structure (SMILES) | pest or weed control at 500 ppm (Puccinia recondita; [3]) [%] | inhibition of growth at 20 ppm [1, 4] [%] | also measured |
| --- | --- | --- | --- | --- |
| 2.11 | CC(=O)c1ccc(C2=NOC(O)(C(F)(F)F)C2)cc1 (stereo not shown) [Ia-038, 1-{4-[5-hydroxy-5-(trifluoromethyl)-4,5-dihydro-1,2-oxazol-3-yl]phenyl}ethanone] | 90 to 100 | 90 to 100 | – |
| 1.78 | CC(O)c1ccc(C2=NOC(O)(C(F)(F)F)C2)cc1 (stereo not shown) [Ia-044, 3-[4-(1-hydroxyethyl)phenyl]-5-(trifluoromethyl)-4,5-dihydro-1,2-oxazol-5-ol] | 90 to 100 | 80 to 89 | – |
| 3.41 | OC1(C(F)(F)F)CC(c2ccc(C#CC3CC3)cc2)=NO1 (stereo not shown) [Ia-031, 3-[4-(cvclopropvlethvnvl)phenyl]-5-(trifluoromethyl)-4,5-dihydro-1,2-oxazol-5-ol] | 80 to 89 | 90 to 100 | – |
| 0.63 | NCc1ccc(C2=NOC(O)(C(F)(F)F)C2)cc1 (stereo not shown) [Ia-112, 3-(4-Aminomethyl-phenyl)-5-trifluoromethyl-4,5-dihydro-isoxazol-5-ol] | 90 to 100 | – | – |
| 1.49 | Nc1ccc(C2=NOC(O)(C(F)(F)F)C2)cc1 (stereo not shown) [Ia-114, 3-(4-aminophenyl)-4,5-dihydro-5-(trifluoromethyl)-5-isoxazolol] | 90 to 100 | 80 to 89 | – |
| 2.98 | CON=C(C)c1ccc(C2=NOC(O)(C(F)(F)F)C2)cc1 (stereo not shown) [Ia-037, 3-[4-(N-methoxvethanimidovl)phenyl]-5-(trifluoromethyl)-4,5-dihydro-1,2-oxazol-5-ol] | – | 90 to 100 | – |
| 1.86 | OC1(C(F)(F)F)CC(c2ccc(-c3cncnc3)cc2)=NO1 (stereo not shown) [Ia-087, 3-[4-(pyrimidin-5-yl)phenyl]-5-(trifluoromethyl)-4,5-dihydro-1,2-oxazol-5-ol] | 90 to 100 | 90 to 100 | – |

Further lines, the compound ahead of its results:

| Structure (SMILES) | chromatographic logP (physchem) | pest or weed control at 500 ppm (Puccinia recondita; [3]) [%] | inhibition of growth at 20 ppm [1, 4] [%] | also measured |
| --- | --- | --- | --- | --- |
| COC(=O)c1ccc(C(=O)CC(=O)C(F)(F)Cl)cc1 [Compound 1b-04, methyl 4-(4-chloro-4,4-difluoro-3-oxobutanoyl)benzoate] | 2.11 | – | – | – |
| O=C(Nc1ccc(F)cc1F)c1ccc(C2=NOC(O)(C(F)(F)Cl)C2)cc1 (stereo not shown) [Ib-030, 4-{5-[chloro(difluoro)methyl]-5-hydroxy-4,5-dihydro-1,2-oxazol-3-vl}-N-(2,4-difluorophenyl)benzamide] | 2.76 | – | – | – |
| CCc1noc(-c2ccc(C3=NOC(OC(C)=O)(C(F)(F)F)C3)cc2)n1 (stereo not shown) [Ia-095, [3-[4-(3-Ethyl-1,2,4-oxadiazol-5-yl)phenyl]-5-(trifluoromethyl)-4H-isoxazol-5-yl]acetate] | – | – | – | LogP [2]: 3.68^[a] |
| Cc1ccc(C)n1-c1ccc(C(=O)CC(=O)C(F)(F)F)cc1 [Compound 1b-35, 1-[4-(2,5-dimethyl-1H-pyrrol-1-yl)phenyl]-4,4,4-trifluoro-1,3-butanedione] | 3.21 | – | – | – |
| CCc1noc(-c2ccc(C3=NOC(O)(C(F)(F)F)C3)cc2)n1 (stereo not shown) [Ia-093, 3-[4-(3-Ethyl-1,2,4-oxadiazol-5-yl)phenyl]-5-(trifluoromethyl)-4H-isoxazol-5-ol] | 2.88 | 90 to 100 | 90 to 100 | – |
| O=C(O)c1ccc(C2=NOC(O)(C(F)(F)Cl)C2)cc1 (stereo not shown) [Ib-048, 4-{5-[chloro(difluoro)methyl]-5-hydroxy-4,5-dihydro-1,2-oxazol-3-yl}benzoic acid] | 1.84 | – | – | – |
| OC1(C(F)(F)F)CC(c2ccc(-c3ccc(F)cc3)cc2)=NO1 (stereo not shown) [Ia-075, 3-(4′-fluoro[biphenyl]-4-yl)-5-(trifluoromethyl)-4,5-dihydro-1,2-oxazol-5-ol] | 3.46 | 80 to 89 | 90 to 100 | – |
| COC(=O)c1ccc(C2=NOC(O)(C(F)(F)Cl)C2)cc1 (stereo not shown) [Ib-049, methyl 4-{5-[chloro(difluoro)methyl]-5-hydroxy-4,5-dihydro-1,2-oxazol-3-yl}benzoate] | 2.55 | – | – | – |
| CN(C)C(=O)Oc1ccc(C2=NOC(O)(C(F)(F)Cl)C2)cc1 (stereo not shown) [Ib-095, 4-{5-[Chloro(difluoro)methyl]-5-hydroxy-4,5-dihydro-1,2-oxazol-3-yl}phenyl dimethylcarbamate] | – | – | – | chromatographic logP [2]: 2.35; pest or weed control at 500 ppm (Puccinia recondita): 90 to 100%; inhibition of growth at 20 ppm [1]: 80 to 89% |
| OC1(C(F)(F)F)CC(c2ccc(-c3ccc4sccc4c3)cc2)=NO1 (stereo not shown) [Ia-108] | – | – | – | LogP [2]: 3.94^[a] |
| CN(C(=O)c1ccc(C(=O)/C=C(\O)C(F)(F)F)cc1)c1ccccc1 [Compound 1b-01] | 2.17 | – | – | – |
| CCc1noc(-c2ccc(C(=O)/C=C(\O)C(F)(F)F)cc2)n1 [Compound 1b-02, 1-[4-(3-Ethyl-1,2,4-oxadiazol-5-yl)phenyl]-4,4,4-trifluoro-3-hydroxy-but-2-en-1-one] | 2.43 | – | – | – |

From patent publication US20210009575A1, “HYDROXYISOXAZOLINES AND DERIVATIVES THEREOF” (Bayer Aktiengesellschaft, priority 2017, published 2021)
